Columns and labels:
[1] = tested on: dimethylbenzanthracene (DMBA)-induced mammary tumors; settings: rats; cited from earlier work
[2] = tested on: benzo(a)pyrene (BP)-induced tumors of the forestomach; settings: mice; cited from earlier work
[3] = tested on: BP-induced pulmonary adenomas; settings: mice; cited from earlier work
[4] = tested on: breast cancer cells; settings: in culture; cited from earlier work
[5] = tested on: prostate cancer cells; settings: cited from earlier work
[6] = tested on: skin surrounding the flank organ of the male Syrian hamster; experiment: Androgen-induced delay of hair growth in the Golden Syrian hamster; format: in vivo
Description: Mature male golden Syrian hamsters, 101-110 g, are obtained from Charles River Laboratories (Wilmington, Mass.). Pellet implant and blood drawing procedures are performed while animals are under general anaesthesia induced by isoflurane (Aerrane®, Fort Dodge Animal Health, Overland Park, Kans.). Testosterone propionate (TP) is administered in the form of 25 mg dose time-release pellets (Inovative Research of America, Toledo, Ohio). Antiandrogenic DIM derivatives (Example II, supra) are coadministered in parallel 25 mg dose time-release pellets. Control animals receive placebo pellets, which contain only carrier/binder excipients (cholesterol, lactose, celluloses, phosphates, and stearates).
Pellets are implanted subcutaneously. A skin incision is made with scissors on the upper dorsal side of the animal, equal in length to the pellet. A horizontal pocket is created with forceps about 2 cm beyond the incision site. Pellets are placed in the pocket with forceps, and incisions are then closed with a staple suture (Autoclip®, 9 mm, Stoelting Co., Wood Dale, Ill.). Immediately after pellet implantation, the fur on and around each flank organ is shaved with electric clippers. This is designated day 0 of the study. At day 7, the fur around the flank organ is re-clipped. […] On day 21 the surface diameters of the left and right flank organs (encompassed within the pigmented area) are measured with vernier callipers. […]
Sebaceous glands are evaluated in unstained whole mounts of ventral dermal sheets from the left ears. […] The gland areas are measured using an Optomax V image analysis system (Optomax, Hollis, N.H.). The percentage change in sebaceous gland size is calculated by comparing the testosterone-treated group with the placebo-treated group. Serum testosterone is measured by radioimmunoassay at an outside laboratory (AniLytics, Inc., Gaithersburg, Md.).
Hair growth is quantified using a visual grading system (0-3 scale, where 0=no growth, 3=full hair growth). […]

SMILES | incidence of DMBA-induced mammary tumors [1] | incidence of BP-induced tumors of the forestomach [2] | incidence of BP-induced pulmonary adenomas [3] | proliferation of breast cancer cells [4] | proliferation of prostate cancer cells [5] | size of the flank organ and the ear sebaceous glands ([6]; 25 mg TP dose, after 21 days) | hair growth grade (0-3 scale) ([6]; TP alone, day 14) | hair growth ([6]; TP alone, day 21)
OCc1c[nH]c2ccccc12 [I3C, indole-3-carbinol, reference compound] | reduced the incidence | reduced the incidence | reduced the incidence | inhibit proliferation | inhibit proliferation | – | – | –
CCC(=O)O[C@H]1CC[C@H]2[C@@H]3CCC4=CC(=O)CC[C@]4(C)[C@H]3CC[C@]12C [TP, Testosterone propionate] | – | – | – | – | – | marked increase | 0 | insignificant
